Assay results published in PubChem BioAssay (NCI).
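GI50 = concentration required for 50% inhibition of growth. The concentration for full growth arrest is given as TGI.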

Tests used:
Assay in all cases: NCI tumour cell line growth inhibition, 384-well format; in the data active means GI50 below about 0.43 µM; inactive means the rest
[1] = tested on: OVCAR-4 ovarian
[2] = tested on: HCT-116 colon
[3] = tested on: SNB-19 CNS
[4] = tested on: OVCAR-5 ovarian
[5] = tested on: SF-268 CNS
[6] = tested on: ACHN renal
[7] = tested on: UACC-257 melanoma
[8] = tested on: SNB-75 CNS
[9] = tested on: RXF 393 renal
[10] = tested on: HOP-92 NSCLC
[11] = tested on: HOP-62 NSCLC
[12] = tested on: MDA-MB-468 breast
[13] = tested on: COLO 205 colon
[14] = tested on: NCI-H460 NSCLC
[15] = tested on: T-47D breast
[16] = tested on: NCI-H226 lung
[17] = tested on: BT-549 breast
[18] = tested on: CAKI-1 renal
[19] = tested on: MDA-MB-435 melanoma
[20] = tested on: NCI-H522 lung
[21] = tested on: MCF7 breast
[22] = tested on: DU-145 prostate
[23] = tested on: SN12C renal
[24] = tested on: IGROV1 ovarian
[25] = tested on: HL-60(TB) leukemia
[26] = tested on: NCI-H23 lung
[27] = tested on: MALME-3M melanoma
[28] = tested on: OVCAR-8 ovarian
[29] = tested on: A498 renal
[30] = tested on: PC-3 prostate
[31] = tested on: SK-MEL-28 melanoma
[32] = tested on: NCI-H322M lung
[33] = tested on: MDA-MB-231 breast
[34] = tested on: UO-31 renal
[35] = tested on: KM12 colon
[36] = tested on: MOLT-4 leukemia
[37] = tested on: SK-MEL-2 melanoma
[38] = tested on: M14 melanoma
[39] = tested on: A549 NSCLC
[40] = tested on: SR leukemia
[41] = tested on: SK-MEL-5 melanoma
[42] = tested on: HCT-15 colon
[43] = tested on: SK-OV-3 ovarian
[44] = tested on: U251 glioblastoma
[45] = tested on: TK-10 renal
[46] = tested on: UACC-62 melanoma
[47] = tested on: HT29 colon
[48] = tested on: SF-295 CNS
[49] = tested on: SW-620 colon
[50] = tested on: SF-539 CNS
[51] = tested on: HS 578T breast
[52] = tested on: K-562 leukemia
[53] = tested on: OVCAR-3 ovarian
[54] = tested on: 786-0 renal
[55] = tested on: EKVX NSCLC
[56] = tested on: NCI/ADR-RES ovarian
[57] = tested on: HCC-2998 colon
[58] = tested on: LOX IMVI melanoma
[59] = tested on: RPMI-8226 leukemia
[60] = tested on: CCRF-CEM leukemia

CCc1cc2c(c(OCC(F)(F)F)c(C(=O)NC3CCN(C(=O)CO)CC3)n2C)c(=O)n1CC(=O)c1ccccc1
40.7 µM: TGI [25]
51.6 µM: TGI [34]
inactive: GI50 [1] 37.1 µM | GI50 [2] 35.6 µM | GI50 [3] > 100 µM | GI50 [4] > 100 µM | GI50 [5] 68.8 µM | GI50 [6] 31.6 µM | GI50 [7] 68.8 µM | GI50 [8] 54.9 µM | GI50 [9] 1910 nM | GI50 [10] 58.6 µM | GI50 [11] 28.2 µM | GI50 [12] 20.6 µM | GI50 [13] > 100000 nM | GI50 [14] 27.5 µM | GI50 [15] 29.9 µM | GI50 [16] 22.4 µM | GI50 [17] 57.9 µM | GI50 [18] 39.6 µM | GI50 [19] > 100 µM | GI50 [20] 69.8 µM | GI50 [21] 9.23 µM | GI50 [22] 82.5 µM | GI50 [23] > 100 µM | GI50 [24] 58.2 µM | GI50 [25] 25.3 µM | GI50 [26] 79.9 µM | GI50 [27] 73.9 µM | GI50 [28] 54.2 µM | GI50 [29] 33.6 µM | GI50 [30] 42.1 µM | GI50 [31] 38.9 µM | GI50 [32] 72.6 µM | GI50 [33] 37.7 µM | GI50 [34] 19.7 µM | GI50 [35] 42.4 µM | GI50 [36] 18.3 µM | GI50 [37] 30.1 µM | GI50 [38] > 100 µM | GI50 [39] 46.8 µM | GI50 [40] 17.3 µM | GI50 [41] 23.2 µM | GI50 [42] 61.9 µM | GI50 [43] 45.8 µM | GI50 [44] 52.6 µM | GI50 [45] 33.9 µM | GI50 [46] 32.6 µM | GI50 [47] 41.7 µM | GI50 [48] 24.9 µM | GI50 [49] 57 µM | GI50 [50] 37.8 µM | GI50 [51] 37.7 µM | GI50 [52] 33.6 µM | GI50 [53] 40 µM | GI50 [54] 18.4 µM | GI50 [55] 40.3 µM
> 100 µM: TGI [1] | TGI [2] | TGI [3] | TGI [4] | TGI [5] | TGI [6] | TGI [7] | TGI [8] | TGI [10] | TGI [11] | TGI [13] | TGI [14] | TGI [15] | TGI [16] | TGI [17] | TGI [18] | TGI [19] | TGI [20] | TGI [21] | TGI [22] | TGI [23] | TGI [24] | TGI [26] | TGI [27] | TGI [28] | TGI [29] | TGI [30] | TGI [31] | TGI [32] | TGI [33] | TGI [35] | TGI [37] | TGI [38] | TGI [39] | TGI [41] | TGI [42] | TGI [43] | TGI [44] | TGI [45] | TGI [46] | TGI [47] | TGI [49] | TGI [50] | TGI [51] | TGI [52] | TGI [53] | TGI [55]
12.4 µM: TGI [9]
98.7 µM: TGI [48]
31.4 µM: TGI [40]
79.2 µM: TGI [12]
36.6 µM: TGI [54]
34.6 µM: TGI [36]

CCOC(=O)c1c(NN2CCN(CC(F)(F)F)CC2)oc(/C=C2\C=Nc3ncccc32)c1O
10.5 µM: TGI [38]
9.61 µM: TGI [58]
18.9 µM: TGI [8]
5.08 µM: TGI [17]
3.96 µM: TGI [46]
9.71 µM: TGI [12]
0.488 µM: TGI [40]
3.21 µM: TGI [51]
36.2 µM: TGI [7]
2310 nM: TGI [60]
11.6 µM: TGI [5]
29.4 µM: TGI [19]
active: GI50 [13] 373 nM | GI50 [40] 0.222 µM
2.41 µM: TGI [25]
9.54 µM: TGI [27]
8.02 µM: TGI [35]
3.91 µM: TGI [9]
9.8 µM: TGI [50]
8.44 µM: TGI [54]
16.7 µM: TGI [31]
14.9 µM: TGI [41]
4.86 µM: TGI [37]
10.2 µM: TGI [21]
18.5 µM: TGI [26]
6.01 µM: TGI [57]
> 100 µM: TGI [1] | TGI [3] | TGI [56] | TGI [6] | TGI [10] | TGI [15] | TGI [18] | TGI [20] | TGI [22] | TGI [23] | TGI [28] | TGI [29] | TGI [30] | TGI [32] | TGI [33] | TGI [39] | TGI [42] | TGI [43] | TGI [44] | TGI [45] | TGI [47] | TGI [53] | TGI [55]
4.4 µM: TGI [14]
9.4 µM: TGI [11]
inactive: GI50 [1] 96.1 µM | GI50 [3] 8.03 µM | GI50 [56] > 100 µM | GI50 [5] 4.06 µM | GI50 [6] 5.86 µM | GI50 [7] 17.4 µM | GI50 [8] 6.66 µM | GI50 [9] 1940 nM | GI50 [10] > 100 µM | GI50 [11] 2.86 µM | GI50 [12] 3.2 µM | GI50 [14] 2.23 µM | GI50 [15] > 100 µM | GI50 [17] 2.44 µM | GI50 [18] 3.83 µM | GI50 [19] 10.8 µM | GI50 [20] 1.14 µM | GI50 [21] 3.69 µM | GI50 [22] 3.08 µM | GI50 [23] 5.42 µM | GI50 [25] 1.18 µM | GI50 [26] 4.83 µM | GI50 [27] 3.05 µM | GI50 [57] 1610 nM | GI50 [28] 5.48 µM | GI50 [58] 3.14 µM | GI50 [29] 2.75 µM | GI50 [30] 3.64 µM | GI50 [31] 5.23 µM | GI50 [32] 4.05 µM | GI50 [33] 5.8 µM | GI50 [35] 3.28 µM | GI50 [36] 1.88 µM | GI50 [37] 2.62 µM | GI50 [38] 3.36 µM | GI50 [39] 5.31 µM | GI50 [41] 2.67 µM | GI50 [42] 5.2 µM | GI50 [59] 1960 nM | GI50 [43] 2.72 µM | GI50 [44] 2.76 µM | GI50 [45] > 100 µM | GI50 [46] 2.12 µM | GI50 [47] 2.5 µM | GI50 [50] 2.84 µM | GI50 [51] 1.55 µM | GI50 [60] 911 nM | GI50 [53] 2.82 µM | GI50 [54] 3.39 µM | GI50 [55] 7.51 µM
4.22 µM: TGI [59]
3.37 µM: TGI [13] | TGI [36]
